# Test results published in patent US8399502B2, “Analogs of indole-3-carbinol and their use as agents against infection” (priority 2008, dated 2013).
# What was measured:
# Type in all cases: cell-based
# [1] = tested on: Brucella abortus (BAB; Gram-negative); assay: microbe, parasite or virus in culture; conditions: read-out: MIC BAB
# [2] = tested on: Burkholderia mallei (BM; Gram-negative); assay: microbe, parasite or virus in culture; conditions: read-out: MIC BM
# [3] = tested on: Burkholderia pseudomallei (BP; Gram-negative); assay: microbe, parasite or virus in culture; conditions: read-out: MIC BP
# [4] = tested on: Francisella tularensis (FT; Gram-negative); assay: microbe, parasite or virus in culture; conditions: read-out: MIC FT
# [5] = tested on: Yersinia pestis (YP; Gram-negative); assay: microbe, parasite or virus in culture; conditions: read-out: MIC YP
# [6] = tested on: Bacillus anthracis (BA; Gram-positive); assay: microbe, parasite or virus in culture; conditions: read-out: MIC BA
# [7] = tested on: methicillin-susceptible Staphylococcus aureus (MSSA); assay: microbe, parasite or virus in culture; conditions: read-out: MIC MSSA
# [8] = tested on: methicillin-resistant Staphylococcus aureus (MRSA); assay: microbe, parasite or virus in culture; conditions: read-out: MIC MRSA
# [9] = tested on: penicillin-susceptible S. pneumoniae (PSSP); assay: microbe, parasite or virus in culture; conditions: Streptococcus pneumoniae, read-out: MIC PSSP
# [10] = tested on: penicillin-resistant S. pneumoniae (PRSP); assay: microbe, parasite or virus in culture; conditions: Streptococcus pneumoniae, read-out: MIC PRSP
# [11] = tested on: Acinetobacter baumannii (AB); assay: MIC determination; conditions: Table 3
# [12] = tested on: Shigella dysenteriae (SD); assay: MIC determination; conditions: Table 3
# [13] = tested on: Listeria monocytogenes (LM); assay: MIC determination; conditions: Table 3
# [14] = tested on: Vancomycin-resistant Enterococcus faecalis (VRE); assay: MIC determination; conditions: Table 3
# [15] = tested on: Vancomycin-Sensitive Enterococcus faecalis (VSE); assay: MIC determination; conditions: Table 3
# [16] = tested on: Mycobacteruim tuberculosis H37Rv (H37Rv); assay: microbe, parasite or virus in culture; conditions: Mycobacterium tuberculosis, read-out: MIC against Tubercle bacillus
SMILES,MIC [1] [µg/mL],MIC [2] [µg/mL],MIC [3] [µg/mL],MIC [4] [µg/mL],MIC [5] [µg/mL],MIC [6] [µg/mL],also measured
CNCCOc1c2[nH]c3ccc(F)cc3c2cc2c1[nH]c1ccc(F)cc12,0.5,4,16,0.5,8,1,
CCOC(=O)c1ccc2[nH]c3c(OCCN)c4[nH]c5ccc(C(=O)OCC)cc5c4cc3c2c1,1,> 8,> 8,1,> 8,2,
Fc1ccc2[nH]c3c(OC4CCNCC4)c4[nH]c5ccc(F)cc5c4cc3c2c1,≤ 0.25,4,8,≤ 0.25,8,≤ 0.25,
Clc1ccc2[nH]c3c(OCC4CCNCC4)c4[nH]c5ccc(Cl)cc5c4cc3c2c1,≤ 0.25,8,> 8,0.5,2,0.5,
CC/N=C(/NCCCOc1c2[nH]c3ccc(F)cc3c2cc2c1[nH]c1ccc(F)cc12)NCCCN(C)C,0.5,4,8,≤ 0.25,4,≤ 0.25,
Clc1ccc2[nH]c3c(OCC4CCCN4)c4[nH]c5ccc(Cl)cc5c4cc3c2c1 (stereo not drawn),0.5,4,8,0.5,1,1,
C/N=C(\NC)NCCCOc1c2[nH]c3ccc(Cl)cc3c2cc2c1[nH]c1ccc(Cl)cc12,0.5,4,4,1,1,0.5,
c1ccc2c(Cc3c[nH]c4ccccc34)c[nH]c2c1,,,,8,,> 64,MIC [7]: > 64 µg/mL; MIC [8]: > 64 µg/mL; MIC [9]: > 64 µg/mL; MIC [10]: 8 µg/mL
C=C(c1c[nH]c2ccccc12)c1c[nH]c2ccccc12,,,,16,,8,MIC [7]: 8 µg/mL; MIC [8]: 8 µg/mL; MIC [9]: 4 µg/mL; MIC [10]: 2 µg/mL
c1ccc2[nH]c(Cc3c[nH]c4ccccc34)cc2c1,,,,4,,16,MIC [7]: 32 µg/mL; MIC [8]: 32 µg/mL; MIC [9]: 8 µg/mL; MIC [10]: 1 µg/mL
c1ccc2[nH]c(Cc3cc4ccccc4[nH]3)cc2c1,,,,4,,16,MIC [7]: 16 µg/mL; MIC [8]: 32 µg/mL; MIC [9]: 1 µg/mL; MIC [10]: 2 µg/mL
CCOC(=O)c1ccc2[nH]cc(Cc3c(C)[nH]c4ccccc34)c2c1,,,,4,,8,MIC [7]: > 64 µg/mL; MIC [8]: > 64 µg/mL; MIC [9]: 2 µg/mL; MIC [10]: 8 µg/mL
CCOC(=O)Oc1c2[nH]c3ccccc3c2cc2c1[nH]c1ccccc12,,,,≤ 0.5,,4,MIC [7]: 4 µg/mL; MIC [8]: 4 µg/mL; MIC [9]: 4 µg/mL; MIC [10]: 2 µg/mL
c1ccc2c(Cc3[nH]c4ccccc4c3Cc3c[nH]c4ccccc34)c[nH]c2c1,,,,2,,4,MIC [7]: 8 µg/mL; MIC [8]: 8 µg/mL; MIC [9]: 4 µg/mL; MIC [10]: 2 µg/mL
"Cc1onc(-c2ccccc2)c1C(=O)N[C@@H]1C(=O)N2[C@@H]1SC(C)(C)[C@@H]2C(=O)O [Oxacillin, oxacillin, reference compound]",,,,> 64,,0.8,MIC [8]: > 64 µg/mL; MIC [9]: 0.1 µg/mL
COc1c2[nH]c3ccc(F)cc3c2cc2c1[nH]c1ccc(F)cc12 [drawing 194],1,> 16,> 16,0.5,> 16,1,
CN(C)CCOc1c2[nH]c3ccc(F)cc3c2cc2c1[nH]c1ccc(F)cc12 [drawing 195],0.5,4,8,0.25,8,0.5,
CN(C)CC#Cc1c2[nH]c3ccc(F)cc3c2cc2c1[nH]c1ccc(F)cc12 [drawing 210],0.25,8,> 8,0.25,2,0.5,
N=C(N)NCCCOc1c2[nH]c3ccc(Cl)cc3c2cc2c1[nH]c1ccc(Cl)cc12 [drawing 217],0.25,1,2,0.25,1,0.25,
OC1CCN(CCCOc2c3[nH]c4ccc(Cl)cc4c3cc3c2[nH]c2ccc(Cl)cc23)CC1 [drawing 229],0.25,8,> 8,0.25,2,0.25,
Fc1ccc2[nH]c3c(OCCCn4cncn4)c4[nH]c5ccc(F)cc5c4cc3c2c1 [drawing 231],1,> 8,> 8,1,> 8,0.5,
N=C(N)NCCCOc1c2[nH]c3ccc(F)cc3c2cc2c1[nH]c1ccc(F)cc12 [drawing 232],0.25,2,4,1,8,0.5,

SMILES,MIC [1] [µg/mL],MIC [2] [µg/mL],MIC [3] [µg/mL],MIC [4] [µg/mL],MIC [5] [µg/mL],MIC [6] [µg/mL],also measured
Fc1ccc2[nH]c3c(OCCCNC4=NCCN4)c4[nH]c5ccc(F)cc5c4cc3c2c1 [drawing 234],2,8,> 8,2,8,1,
Fc1ccc2[nH]c3c(O[C@@H]4CCNC4)c4[nH]c5ccc(F)cc5c4cc3c2c1 [drawing 253],< 0.25,2,4,≤ 0.25,1,< 0.25,
Fc1ccc2[nH]c3c(O[C@H]4CCNC4)c4[nH]c5ccc(F)cc5c4cc3c2c1 [drawing 254],< 0.25,2,4,0.25,1,0.25,
Cc1c2[nH]c3ccccc3c2cc2c1[nH]c1ccccc12 [drawing 263],,,,≤ 0.5,,1,MIC [7]: 2 µg/mL; MIC [8]: 4 µg/mL; MIC [9]: 1 µg/mL; MIC [10]: 1 µg/mL
CN(C)CCOc1c2[nH]c3ccc(F)cc3c2cc2c1[nH]c1ccc(F)cc12 [drawing 265],,,,,,,MIC [11]: 4 µg/mL; MIC [12]: 8 µg/mL; MIC [13]: 2 µg/mL; MIC [14]: 2 µg/mL; MIC [15]: 1 µg/mL
N=C(N)NCCCOc1c2[nH]c3ccc(Cl)cc3c2cc2c1[nH]c1ccc(Cl)cc12 [drawing 266],,,,,,,MIC [11]: 4 µg/mL; MIC [12]: 4 µg/mL; MIC [13]: 1 µg/mL; MIC [14]: 2 µg/mL; MIC [15]: 4 µg/mL
OC1CCN(CCCOc2c3[nH]c4ccc(Cl)cc4c3cc3c2[nH]c2ccc(Cl)cc23)CC1 [drawing 267],,,,,,,MIC [11]: 4 µg/mL; MIC [12]: 8 µg/mL; MIC [13]: 1 µg/mL; MIC [14]: 2 µg/mL; MIC [15]: 4 µg/mL
N=C(N)NCCCOc1c2[nH]c3ccc(F)cc3c2cc2c1[nH]c1ccc(F)cc12 [drawing 268],,,,,,,MIC [11]: 8 µg/mL; MIC [12]: 8 µg/mL; MIC [13]: 4 µg/mL; MIC [14]: 2 µg/mL; MIC [15]: 8 µg/mL
Fc1ccc2[nH]c3c(O[C@@H]4CCNC4)c4[nH]c5ccc(F)cc5c4cc3c2c1 [drawing 269],,,,,,,MIC [11]: 4 µg/mL; MIC [12]: 4 µg/mL; MIC [13]: 2 µg/mL; MIC [14]: 1 µg/mL; MIC [15]: 2 µg/mL
Fc1ccc2[nH]c3c(OCCCNC4=NCCN4)c4[nH]c5ccc(F)cc5c4cc3c2c1 [drawing 270],,,,,,,MIC [11]: 4 µg/mL; MIC [12]: 8 µg/mL; MIC [13]: 2 µg/mL; MIC [14]: 1 µg/mL; MIC [15]: 4 µg/mL
COc1c2[nH]c3ccc(F)cc3c2cc2c1[nH]c1ccc(F)cc12 [drawing 271],,,,,,,MIC [16]: > 10 µg/mL
CN(C)CCOc1c2[nH]c3ccc(F)cc3c2cc2c1[nH]c1ccc(F)cc12 [drawing 272],,,,,,,MIC [16]: 5 µg/mL
CN(C)CC#Cc1c2[nH]c3ccc(F)cc3c2cc2c1[nH]c1ccc(F)cc12 [drawing 273],,,,,,,MIC [16]: 10 µg/mL
N=C(N)NCCCOc1c2[nH]c3ccc(Cl)cc3c2cc2c1[nH]c1ccc(Cl)cc12 [drawing 274],,,,,,,MIC [16]: 10 µg/mL
OC1CCN(CCCOc2c3[nH]c4ccc(Cl)cc4c3cc3c2[nH]c2ccc(Cl)cc23)CC1 [drawing 275],,,,,,,MIC [16]: 10 µg/mL
Fc1ccc2[nH]c3c(OCCCn4cncn4)c4[nH]c5ccc(F)cc5c4cc3c2c1 [drawing 276],,,,,,,MIC [16]: > 10 µg/mL
N=C(N)NCCCOc1c2[nH]c3ccc(F)cc3c2cc2c1[nH]c1ccc(F)cc12 [drawing 277],,,,,,,MIC [16]: 10 µg/mL
Fc1ccc2[nH]c3c(OCCCNC4=NCCN4)c4[nH]c5ccc(F)cc5c4cc3c2c1 [drawing 278],,,,,,,MIC [16]: 10 µg/mL
Fc1ccc2[nH]c3c(O[C@@H]4CCNC4)c4[nH]c5ccc(F)cc5c4cc3c2c1 [drawing 279],,,,,,,MIC [16]: 10 µg/mL
Fc1ccc2[nH]c3c(O[C@H]4CCNC4)c4[nH]c5ccc(F)cc5c4cc3c2c1 [drawing 280],,,,,,,MIC [16]: 5 µg/mL
Cc1c2[nH]c3ccccc3c2cc2c1[nH]c1ccccc12 [drawing 281],,,,,,,MIC [16]: 10 µg/mL
